These results are taken from publication doi:10.1101/2023.10.24.563163v2, “Targeting cancer with small molecule pan-KRAS degraders” (biorxiv, 2024).

What is called DC50 is the concentration at which degradation of the target reaches its halfway point.

The target in assay [1] is T1, VHL-NanoLuc (Homo sapiens, UniProt P40337).
T1 construct: VHL-NanoLuc fusion (Promega) transfected into HEK293; endogenous elongins
Description: NanoBRET VHL target engagement. Type of assay: cell-based. In general terms: BRET reads energy transfer from a luciferase to a nearby fluorophore.

Assay [2] relates to NCI-H358. As to the kind of experiment: cells. Details: Inhibition of cell proliferation, 5 days. To be noted: Homo sapiens, NCI-H358, 120 h; read-out: IC50 Proliferation NCI-H358. The text has this:
Next, we set out to test the ability of a single pan-KRAS degrading molecule, compound 4, to selectively suppress oncogenic signaling and proliferation in cancer cell lines driven by diverse KRAS mutants. To this end, we first confirmed degradation of KRAS by compound 4 in KRAS-dependent (GP2d, SW620 and NCI-H358 expressing KRAS^G12D, - G12V or -G12C, respectively) as well as in KRAS independent (A-375, HEK293) cell lines (Fig. 3A, fig. S4A). […] Both inhibition and degradation repressed the established markers of MAPK signaling pERK (fig. S4B-D) and DUSP6 (Fig. 3B, fig. S4E) in KRAS dependent cell lines. […] Neither degradation nor inhibition had appreciable antiproliferative effects in the KRAS independent cell lines A-375 and HEK293 (Fig. 3C, fig. S4F). […] Pan-KRAS degradation impacts MAPK signaling and cancer cell proliferation.

Assay [3] concerns GP2d. Description: cells. Details: pERK levels by capillary electrophoresis. Particulars: GP2d, 6 h. The protocol: (§1) Protein Detection by Capillary Electrophoresis Cells (50 000) were seeded the day before treatment into 96-well clear-flat bottom plates and incubated overnight (37 °C, humidified tissue culture incubator, 5% CO2). Compounds were added from DMSO stock solution using a digital dispenser and cells are incubated at 37 °C as specified (24 hours for KRAS degradation, 6 hours for determination of pERK levels). At the end of the incubation, medium was removed, cells washed with ice cold PBS, PBS removed and 50 µL lysis buffer (Meso Scale Discovery #R60TX-2) supplemented with 1:100 protease inhibitor solution, 1:100 phosphatase inhibitor I, 1:100 phosphatase inhibitor II (Meso Scale Discovery #R70AA-1), 0.5 µL/mL Benzonase (Novagen #70664-3) and 10 mM dithiothreitol added to each well. Plates with lysis buffer were immediately transferred to -80 °C freezer for at least 2 hours and then thawed on ice. Lysates were transferred to a 96 well V-bottom plate and insoluble debris was pelleted by centrifugation for 20 min. at 4 000 rpm. 40 µL of the supernatant were transferred to a fresh Eppendorf PCR plate. Analysis of protein levels was conducted using the Wes System, ProteinSimple (https://www.bio-techne.com/) as specified by the manufacturer. Briefly, Wes Master Mix (12-230 kDa WES Separation Module, 8 × 25 capillary cartridges, ProteinSimple #SM-W004) and molecular weight markers were prepared as specified in the manufacturer’s recommendations. To detect primary antibodies, anti-rabbit (Protein Simple #DM-001) or anti-mouse (Protein Simple #DM-002) detection modules were used. 7.2 µL lysate + 1.8 µL master mix were combined and heated to 95 °C for 5 min. Th

Assay [4] has as its target KRAS^G12C (Homo sapiens, UniProt P01116, G12C). Details: endogenous in NCI-H358; KRAS degradation by capillary electrophoresis (Wes) immunodetection. To be noted: NCI-H358; 6 h; degrader. The protocol:
as §1, with “Compounds were added from DMSO stock solution using a digital dispenser and cells are incubated at 37 °C as specified (24 hours for KRAS degradation, 6 hours for determination of pERK levels).” left out, “7.2 µL lysate + 1.8 µL master mix were combined and heated to 95 °C for 5 min. Th” left out

Chain of KRAS^G12C (P01116 whole entry G12C): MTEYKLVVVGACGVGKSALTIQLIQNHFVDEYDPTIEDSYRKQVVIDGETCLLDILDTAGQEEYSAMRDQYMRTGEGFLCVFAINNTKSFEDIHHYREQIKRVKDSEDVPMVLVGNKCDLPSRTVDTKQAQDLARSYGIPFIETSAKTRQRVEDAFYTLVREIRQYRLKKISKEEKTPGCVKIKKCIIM
T1 sequence (P40337 whole entry, the tested form may be a part): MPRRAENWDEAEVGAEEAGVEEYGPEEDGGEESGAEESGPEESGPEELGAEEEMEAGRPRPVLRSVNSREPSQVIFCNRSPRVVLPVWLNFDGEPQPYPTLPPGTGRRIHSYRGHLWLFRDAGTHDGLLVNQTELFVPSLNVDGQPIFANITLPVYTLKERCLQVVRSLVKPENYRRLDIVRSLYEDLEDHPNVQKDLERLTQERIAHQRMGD

Consider `Cc1ncsc1-c1ccc(CNC(=O)[C@@H]2C[C@@H](O)CN2C(=O)[C@@H](NC(=O)COCCCN2CCCN(c3nccc(-c4noc([C@@]5(C)CCCc6sc(N)c(C#N)c65)n4)n3)[C@@H](C)C2)C(C)(C)C)cc1` [compound 2], for which the IC50 in assay [1] amounted to 5 µM.

On to `Cc1ncsc1-c1ccc(CNC(=O)[C@@H]2C[C@@H](O)CN2C(=O)[C@@H](NC(=O)CCCCCN2CCCN(c3nccc(-c4noc([C@@]5(C)CCCc6sc(N)c(C#N)c65)n4)n3)[C@@H](C)C2)C(C)(C)C)cc1` [compound 3], for which the results for the IC50 in assay [2] and in assay [3] were 983 nM and 772 nM, respectively. Further, the half-maximal degradation concentration (DC50) in assay [4] worked out at 159 nM.

As to `Cc1ncsc1-c1ccc(CNC(=O)[C@@H]2C[C@@H](O)CN2C(=O)[C@@H](c2cc(OCCCCN3CCCN(c4nccc(-c5noc([C@@]6(C)CCCc7sc(N)c(C#N)c76)n5)n4)[C@@H](C)C3)no2)C(C)C)cc1` [compound 4], the values for the IC50 in assay [2] and in assay [3] were 85.4 nM and 3.1 nM, respectively. The molecule also had a DC50 in assay [4] of 19.6 nM.
